Where “and” joins values, the source holds several entries; their conditions need not be identical. Identical values can stand only once.
Assay: xn = mol fraction of the nth substance listed

Nc1ccccc1 + C1CCCCC1
Settings | viscosity
301.05 K, 101.32 kPa, x1 = 0.7073 | 1.9 mPa·s
301.92 K, 101 kPa, x1 = 0.238 | 1.083 mPa·s
302.2 K, 101 kPa, x1 = 0.592 | 1.621 mPa·s
302.46 K, 101 kPa, x1 = 0.745 | 1.893 mPa·s
302.5 K, 101 kPa, x1 = 0.63 | 1.651 mPa·s
302.66 K, 101 kPa, x1 = 0.71 | 1.798 mPa·s
302.76 K, 101 kPa, x1 = 0.337 | 1.185 mPa·s
303 K, 101 kPa, x1 = 0.442 | 1.643 mPa·s and 1.611 mPa·s
303.02 K, 101 kPa, x1 = 0.442 | 1.57 mPa·s
303.08 K, 101 kPa, x1 = 0.39 | 1.305 mPa·s
303.09 K, 101 kPa, x1 = 0.442 | 1.539 mPa·s
303.12 K, 101 kPa, x1 = 0.592 | 1.574 mPa·s
303.15 K, 101 kPa, x1 = 0.442 | 1.496 mPa·s
303.15 K, 101.32 kPa, x1 = 0.7073 | 1.79 mPa·s
303.22 K, 101 kPa, x1 = 0.442 | 1.458 mPa·s
303.26 K, 101 kPa, x1 = 0.745 | 1.847 mPa·s
303.35 K, 101 kPa, x1 = 0.442 | 1.419 mPa·s
303.39 K, 101 kPa, x1 = 0.39 | 1.275 mPa·s
303.58 K, 101 kPa, x1 = 0.492 | 1.434 mPa·s
303.61 K, 101 kPa, x1 = 0.442 | 1.386 mPa·s
303.68 K, 101 kPa, x1 = 0.41 | 1.31 mPa·s
303.76 K, 101 kPa, x1 = 0.442 | 1.366 mPa·s
303.9 K, 101 kPa, x1 = 0.442 | 1.353 mPa·s
303.92 K, 101 kPa, x1 = 0.39 | 1.238 mPa·s
304.07 K, 101 kPa, x1 = 0.592 | 1.531 mPa·s
304.09 K, 101 kPa, x1 = 0.745 | 1.808 mPa·s
304.1 K, 101 kPa, x1 = 0.442 | 1.335 mPa·s
304.25 K, 101 kPa, x1 = 0.71 | 1.731 mPa·s
304.32 K, 101 kPa, x1 = 0.543 | 1.452 mPa·s
304.38 K, 101 kPa, x1 = 0.442 | 1.32 mPa·s
304.39 K, 101 kPa, x1 = 0.337 | 1.109 mPa·s
304.42 K, 101 kPa, x1 = 0.39 | 1.215 mPa·s
304.51 K, 101 kPa, x1 = 0.523 | 1.41 mPa·s
304.53 K, 101 kPa, x1 = 0.492 | 1.373 mPa·s
304.56 K, 101 kPa, x1 = 0.63 | 1.546 mPa·s
304.58 K, 101 kPa, x1 = 0.442 | 1.302 mPa·s
304.59 K, 101 kPa, x1 = 0.41 | 1.244 mPa·s
304.64 K, 101 kPa, x1 = 0.462 | 1.334 mPa·s
304.75 K, 101.32 kPa, x1 = 0.5628 | 1.51 mPa·s
304.99 K, 101 kPa, x1 = 0.442 | 1.281 mPa·s
305.01 K, 101 kPa, x1 = 0.745 | 1.77 mPa·s
305.05 K, 101.32 kPa, x1 = 0.5628 | 1.48 mPa·s
305.17 K, 101 kPa, x1 = 0.71 | 1.693 mPa·s
305.24 K, 101 kPa, x1 = 0.442 | 1.268 mPa·s
305.41 K, 101 kPa, x1 = 0.39 | 1.169 mPa·s
305.51 K, 101 kPa, x1 = 0.592 | 1.466 mPa·s
305.83 K, 101 kPa, x1 = 0.745 | 1.737 mPa·s
305.91 K, 101 kPa, x1 = 0.442 | 1.236 mPa·s
306.15 K, 101.32 kPa, x1 = 0.7073 | 1.65 mPa·s
